From ChEMBL document CHEMBL1201862, “PubChem BioAssay data set” (2004)
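48-hour exposure; five concentrations; linearly interpolated endpoints. Here, GI50 denotes the concentration required for 50% inhibition of growth.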 Activity calls are given as the source filed them. Cut-off read from the data, not from the text of the source: active = GI50 up to about 1.1 µM and inactive = higher.

Columns and labels:
Assay in all cases: NCI anticancer screen, dose series, 48 h
HCT-15 = system: HCT-15
CCRF-CEM = system: CCRF-CEM
A549 = system: A549
OVCAR-4 = system: OVCAR-4
ACHN = system: ACHN
HT-29 = system: HT-29
Malme-3M = system: Malme-3M
OVCAR-3 = system: OVCAR-3
IGROV-1 = system: IGROV-1
A498 = system: A498
UACC-257 = system: UACC-257
U-251 = system: U-251
UACC-62 = system: UACC-62
UO-31 = system: UO-31
SR = system: SR
MOLT-4 = system: MOLT-4

SMILES	GI50 (HCT-15) [µM]	GI50 (CCRF-CEM)	GI50 (A549)	GI50 (OVCAR-4)	GI50 (ACHN)	GI50 (HT-29)	GI50 (Malme-3M)	GI50 (OVCAR-3)	GI50 (IGROV-1)	GI50 (A498)	GI50 (UACC-257)	GI50 (U-251)	GI50 (UACC-62)	GI50 (UO-31)	GI50 (SR)	GI50 (MOLT-4)
COP(=O)(OC)C(NC(=O)C(F)(F)F)(c1ccccc1)C(F)(F)F (stereo unspecified)	> 100	> 100 µM (inactive)	> 100 µM (inactive)	> 100 µM (inactive)	> 100 µM (inactive)	> 100 µM (inactive)	> 100 µM (inactive)	> 100 µM (inactive)	> 100 µM (inactive)	> 100 µM (inactive)	> 100 µM (inactive)	> 100 µM (inactive)	> 100 µM (inactive)	> 100 µM (inactive)	> 100 µM (inactive)	> 100 µM (inactive)
O=[N+]([O-])c1cnn(C2=CNc3ccccc3N=C2)c1	> 100	> 100 µM (inactive)	> 100 µM (inactive)		> 100 µM (inactive)	> 100 µM (inactive)	> 100 µM (inactive)	> 100 µM (inactive)			> 100 µM (inactive)	> 100 µM (inactive)	> 100 µM (inactive)	> 100 µM (inactive)	> 100 µM (inactive)	> 100 µM (inactive)
O=C1CC[C@@H](S(=O)(=O)c2ccccc2)[C@@H](/C=C/c2ccccc2)O1	> 100	> 100 µM (inactive)	> 100 µM (inactive)	> 100 µM (inactive)	> 100 µM (inactive)	> 100 µM (inactive)	> 100 µM (inactive)	> 100 µM (inactive)	> 100 µM (inactive)	> 100 µM (inactive)	> 100 µM (inactive)	> 100 µM (inactive)	> 100 µM (inactive)	> 100 µM (inactive)	> 100 µM (inactive)	> 100 µM (inactive)
Cc1ccc2c(ccc(/C=C\c3cc(C)c4cccnc4c3O)[n+]2C)c1		0.796 µM (active)	8.43 µM (inactive)	14.4 µM (inactive)	5.65 µM (inactive)		8.41 µM (inactive)	2.01 µM (inactive)	6.24 µM (inactive)	14.6 µM (inactive)	11.7 µM (inactive)	1.75 µM (inactive)	0.535 µM (active)	15.7 µM (inactive)	2.12 µM (inactive)	1.05 µM (active)
COC(=O)C1=C(C[S+]([O-])c2ccc([N+](=O)[O-])cc2[N+](=O)[O-])C2C=CC1C2 (stereo unspecified)	15.7	11.8 µM (inactive)	57 µM (inactive)	25.7 µM (inactive)	19.8 µM (inactive)	17.7 µM (inactive)	21.4 µM (inactive)	23.1 µM (inactive)	64.9 µM (inactive)	> 100 µM (inactive)	30.2 µM (inactive)	20 µM (inactive)	18 µM (inactive)	22.4 µM (inactive)		22.2 µM (inactive)
N#CC(C#N)=c1ccc(=C2NCC3CCCN23)cc1 (stereo unspecified)	> 100	> 100 µM (inactive)	> 100 µM (inactive)	> 100 µM (inactive)		> 100 µM (inactive)	> 100 µM (inactive)		> 100 µM (inactive)	> 100 µM (inactive)	> 100 µM (inactive)	> 100 µM (inactive)	> 100 µM (inactive)	> 100 µM (inactive)	> 100 µM (inactive)	> 100 µM (inactive)
CC(=O)NC1=C(Nc2ccc(C)cc2)C(=O)c2ccccc2C1=O	14.5	17.1 µM (inactive)	14.3 µM (inactive)	17.7 µM (inactive)	17.9 µM (inactive)	15.2 µM (inactive)	11.5 µM (inactive)	16.6 µM (inactive)	17.7 µM (inactive)	50.2 µM (inactive)	18 µM (inactive)	29 µM (inactive)	10.9 µM (inactive)	25 µM (inactive)		16.7 µM (inactive)
COC1O[C@@H]2COC(C)(C)O[C@@H]2C(=O)N1Nc1ccc([N+](=O)[O-])cc1 (stereo partly specified)	> 100	> 10 µM (inactive)	> 100 µM (inactive)	> 100 µM (inactive)	> 100 µM (inactive)	63 µM (inactive)	> 100 µM (inactive)	> 100 µM (inactive)	> 100 µM (inactive)	> 100 µM (inactive)	> 100 µM (inactive)	> 100 µM (inactive)	> 100 µM (inactive)	> 100 µM (inactive)		> 100 µM (inactive)
COC(=O)[C@@]12C3=NO[C@]1(C(=O)OC)C(O[Si](C)(C)C(C)(C)C)C1OC(C)(C)OC1[C@@H]2[C@@H](OCc1ccccc1)CC3 (stereo partly specified)	91	> 100 µM (inactive)	> 100 µM (inactive)	23.9 µM (inactive)		33 µM (inactive)		39.7 µM (inactive)	> 100 µM (inactive)	> 100 µM (inactive)		> 100 µM (inactive)	> 100 µM (inactive)	8.85 µM (inactive)		7.52 µM (inactive)
CC(C)(O)C(O)COc1c2c(cc3oc(=O)ccc13)OCO2 (stereo unspecified)	> 100	> 100 µM (inactive)	> 100 µM (inactive)	> 100 µM (inactive)	> 100 µM (inactive)	> 100 µM (inactive)	> 100 µM (inactive)	> 100 µM (inactive)	> 100 µM (inactive)	> 100 µM (inactive)	> 100 µM (inactive)	> 100 µM (inactive)	> 100 µM (inactive)	> 100 µM (inactive)	> 100 µM (inactive)	> 100 µM (inactive)
